Results on 40 compounds are retold here after US9718790B2, “Triazine derivative and pharmaceutical composition having an analgesic activity comprising the same” (SHIONOGI & CO., LTD., priority 2010, dated 2017).

Chain of human P2X3 receptor (P56373 whole entry): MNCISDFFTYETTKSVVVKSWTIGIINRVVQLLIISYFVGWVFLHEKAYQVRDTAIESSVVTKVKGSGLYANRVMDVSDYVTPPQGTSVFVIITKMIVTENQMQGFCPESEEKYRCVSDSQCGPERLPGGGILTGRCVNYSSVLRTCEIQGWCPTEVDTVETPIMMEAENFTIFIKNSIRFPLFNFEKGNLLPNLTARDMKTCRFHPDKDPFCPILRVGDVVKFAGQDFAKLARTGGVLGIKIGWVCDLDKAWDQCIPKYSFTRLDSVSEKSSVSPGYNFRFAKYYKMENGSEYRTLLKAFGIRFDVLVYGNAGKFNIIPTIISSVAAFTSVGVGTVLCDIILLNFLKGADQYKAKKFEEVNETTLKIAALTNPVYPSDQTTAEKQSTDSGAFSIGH

One experiment concerns the target human P2X3 receptor (Homo sapiens (Human), UniProt P56373). Briefly: Evaluation of human P2X3 receptor inhibitory activity (Fluo-3 calcium fluorescence, FDSS 3000, ATP stimulation).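 Further: stimulus was 50 nM ATP with fluorescence followed for 3 min, and the response per well was peak post-ATP fluorescence divided by the reading at measurement start.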 In kind it is cell-based. The following applies: C6BU-1 cells stably expressing human P2X3 receptor.
For `CCn1c(=O)[nH]/c(=N\c2ccc(Oc3ccnc(C(=O)OC)c3)cc2)n(CC2CCC3(CC2)CC3)c1=O` [Compound I-2174], the IC50 (as a rule, the point on the concentration scale where inhibition reaches its midpoint) was 6 nM.
Still for that read-out and setting: to `Cc1ccc(Cn2c(=O)n([C@@H](C)[C@@H](C)C(=O)O)c(=O)[nH]/c2=N\c2ccc(CC(C)C)c(Cl)c2)cc1` [Compound I-1443] belongs 6 nM.
Turning to `COC(=O)[C@H](C)[C@H](C)n1c(=O)[nH]/c(=N\c2ccc(OC3CCC3)cc2)n(Cc2ccc(C)cc2)c1=O` [Compound I-1379], the IC50 was 10 nM.
Still for that read-out and setting: to `Cc1ccc(Cn2c(=O)n(C[C@H](C)C(=O)O)c(=O)[nH]/c2=N\c2ccc(Oc3cccnc3C)cc2)cc1` [Compound I-1231] belongs 36 nM.
For the compound `CC(C)Oc1ccc(/N=c2\[nH]c(=O)n(CCC(=O)NC#N)c(=O)n2Cc2ccc(Cl)cc2)cc1F` [Compound I-0758, 1-(4-chlorobenzyl)-6-(3-fluoro-4-isopropoxyphenylimino)-3-[2-(cyanocarbamoyl)ethyl]-1,3,5-triazinane-2,4-dion], the IC50 is 19 nM.
`Cc1cc(/N=c2\[nH]c(=O)n([C@@H]3CN[C@H](C(=O)O)C3)c(=O)n2Cc2ccc(Cl)cc2)ccc1OC(C)C` [Compound I-0716]: the IC50 is 102 nM.
Consider `COC(=O)Cn1c(=O)[nH]/c(=N\c2ccc(OCC3CC3)cc2)n(Cc2ccc(Cl)cc2)c1=O` [Compound I-1930], for which the IC50 is 29 nM.
Regarding `Cc1ccc(Cn2c(=O)n(CCC(=O)O)c(=O)[nH]/c2=N\c2ccc3c(ccc(=O)n3C)c2)cc1` [Compound I-2128], the IC50 was 287 nM.
Turning to `COC(=O)[C@@H](C)Cn1c(=O)[nH]/c(=N\c2ccc(OC(F)F)c(F)c2)n(Cc2ccc(Cl)cc2)c1=O` [Compound I-0655], the IC50 came to 67 nM.
On to `Cc1cc(Oc2ccc(/N=c3\[nH]c(=O)n(CC(CO)CO)c(=O)n3Cc3ccc(Cl)cc3)cc2)ccn1` [Compound I-1954], for which the IC50 is 5 nM.
For `COC(=O)[C@@H](C)Cn1c(=O)[nH]/c(=N\c2ccc(OC(C)C)c(C)c2)n(Cc2ccc(F)cc2)c1=O` [Compound I-0625], the IC50 was 66 nM.
For `Cc1cc(/N=c2\[nH]c(=O)n(CC[C@H](NC(=O)OC(C)(C)C)C(=O)O)c(=O)n2Cc2ccc(Cl)cc2)ccc1OC(C)C` [Compound I-0732, (S)-1-(4-chlorobenzyl)-3-(3-t-butoxycarbonylamino-3-hydroxycarbonylpropyl)-6-(3-mehyl-4-isopropoxyphenylimino)-1,3,5-triazinane-2,4-dion], the half-maximal inhibitory concentration (IC50) is 41 nM.
The same measure, in the same setting: to `CNC(=O)Cn1c(=O)[nH]/c(=N\c2ccc(Oc3ccc(C)nc3)cc2)n(Cc2ccc(Cl)cc2)c1=O` [Compound I-1945] belongs 8 nM; to `Cc1ccc(Cn2c(=O)n(CCC(=O)O)c(=O)[nH]/c2=N\c2ccc(CC(C)C)c(Cl)c2)cc1` [Compound I-1427], 8 nM; to `CCc1cc2cc(/N=c3\[nH]c(=O)n(C[C@H](C)C(=O)OC)c(=O)n3Cc3ccc(Cl)cc3)ccc2s1` [Compound I-1947], 353 nM.
For `Cc1nc2ccc(/N=c3\[nH]c(=O)n([C@H](C)[C@H](C)C(=O)O)c(=O)n3Cc3ccc(Cl)cc3)cc2s1` [Compound I-1467], the 50% inhibitory concentration (IC50) is 12 nM.

Staying with this experiment, now noted: C6BU-1 cells stably expressing human P2X3 receptor, Fluo-3 fluorescence, FDSS 3000.
As for `CCc1oc2ccc(/N=c3\[nH]c(=O)n(CC(=O)O)c(=O)n3Cc3ccc(Cl)cc3)cc2c1C` [Compound I-1609], the IC50 turned out to be 187 nM.
For `Cc1ccc(Cn2c(=O)n(C[C@H](C)C(=O)O)c(=O)[nH]/c2=N\c2ccc(OC3CC3)c(Cl)c2)cc1` [Compound I-1607], the 50% inhibitory concentration (IC50) came out at 35 nM.
Still for that read-out and setting: to `C[C@@H](C(=O)O)[C@H](C)n1c(=O)[nH]/c(=N\c2ccc3c(O)cccc3c2)n(Cc2ccc(Cl)cc2)c1=O` [Compound I-1826] belongs 751 nM; to `O=c1[nH]/c(=N\c2ccc(Oc3ccnc(O)c3)cc2)n(Cc2ccc(Cl)cc2)c(=O)n1C[C@H](O)CO` [Compound I-1731], 5 nM; to `C[C@@H](C(=O)O)[C@H](C)n1c(=O)[nH]/c(=N\c2ccc3[nH]ccc3c2)n(Cc2ccc(Cl)cc2)c1=O` [Compound I-1781], 518 nM.
For `O=c1[nH]/c(=N\c2ccc(Oc3ccnc(O)c3)cc2)n(Cc2ccc(Cl)cc2)c(=O)n1CC(CO)CO` [Compound I-1714], the IC50 was 3 nM.
On the same count and under the same terms, to `CCc1nc2ccc(/N=c3\[nH]c(=O)n(CC(C)(C)C(=O)OC)c(=O)n3Cc3ccc(Cl)cc3)cc2s1` [Compound I-1572] belongs 5 nM; to `CCC(CC)Oc1ccc(/N=c2\[nH]c(=O)n(C[C@H](C)C(=O)OC)c(=O)n2Cc2ccc(C)cc2)cc1` [Compound I-1048], 38 nM; to `COC(=O)[C@@H](C)Cn1c(=O)[nH]/c(=N\c2cccc(C3CCCC3)c2)n(Cc2ccc(C)cc2)c1=O` [Compound I-1089], 487 nM.
For `Cc1ccc(Cn2c(=O)n(C[C@H](C)C(=O)O)c(=O)[nH]/c2=N\c2ccc(OC(F)F)cc2)cc1` [Compound I-1161], the concentration for half-maximal inhibition (IC50) was 148 nM.
As for `CCOc1ccc(/N=c2\[nH]c(=O)n([C@@H](C)[C@@H](C)C(=O)O)c(=O)n2Cc2ccc(C)cc2)cc1Cl` [Compound I-0973], the IC50 amounted to 19 nM.
Consider `CCc1oc2ccc(/N=c3\[nH]c(=O)n(CCO)c(=O)n3Cc3ccc(Cl)cc3)cc2c1C` [Compound I-1633], for which the IC50 was 16 nM.
For `CCc1cc2cc(/N=c3\[nH]c(=O)n(C[C@H](C)C(=O)OC)c(=O)n3Cc3ccc(Cl)cc3)ccc2s1` [Compound I-1947], the IC50 amounted to 677 nM.

The same experiment, now with this note: human P2X3 receptor, Test Example 1.
On to `CCn1c(=O)[nH]/c(=N\c2ccc(Oc3cccc(C#N)n3)cc2)n(C[C@H]2CC[C@H](C)CC2)c1=O` [Compound I-2494], for which the IC50 was found to be 1 nM.
Consider `CCn1c(=O)[nH]/c(=N\c2ccc(Oc3cc(C(=O)O)ccn3)cc2)n(Cc2ccc(C)cc2)c1=O` [Compound I-2303], for which the 50% inhibitory concentration (IC50) was found to be 7 nM.
For `CCn1c(=O)[nH]/c(=N\c2ccc(Oc3ccc(C(=O)O)nc3)cc2)n(C[C@H]2CC[C@H](C)CC2)c1=O` [Compound I-2351], the IC50 is 9 nM.
As for `CCOC(=O)C1(Cn2c(=O)[nH]/c(=N\c3ccc4oc(CC)c(C)c4c3)n(Cc3ccc(Cl)cc3)c2=O)CC1` [Compound I-1538], the IC50 turned out to be 17 nM.
Same read-out and setting: to `Cc1ccc(Cn2c(=O)n(C)c(=O)[nH]/c2=N\c2ccc(Oc3ccc(C(=O)O)nn3)cc2)cc1` [Compound I-2382] belongs 54 nM; to `Cc1ccc(Cn2c(=O)n(CCC(=O)O)c(=O)[nH]/c2=N\c2ccc(Oc3cccc(C(N)=O)n3)cc2)cc1` [Compound I-2683], 12 nM.
As to `CCn1c(=O)[nH]/c(=N\c2ccc(Oc3cccnn3)cc2)n(Cc2ccc(Cl)cc2)c1=O` [Compound I-2611], the half-inhibitory concentration (IC50) stood at 14 nM.
As for `COC(=O)/C=C/c1cccc(Oc2ccc(/N=c3\[nH]c(=O)n(C)c(=O)n3Cc3ccc(Cl)cc3)cc2)c1` [Compound I-2329], the IC50 was 70 nM.
As to `CCn1c(=O)[nH]/c(=N\c2ccc(Oc3cccc(C#N)c3)cc2)n(Cc2ccc(Cl)cc2)c1=O` [Compound I-2305, 1-(4-chlorobenzyl)-6-[4-(3-cyanophenoxy)phenylimino]-3-ethyl-1,3,5-triazinane-2,4-dion], the IC50 came to 4 nM.
For `CCOc1ccc(/N=c2\[nH]c(=O)n([C@H](C)CC(=O)OC)c(=O)n2Cc2ccc(C)cc2)cc1Cl` [Compound I-0876], the IC50 stood at 23 nM.
Consider `CC[C@H](C)n1c(=O)[nH]/c(=N\c2ccc(Oc3ccnc(C(=O)O)c3)cc2)n(Cc2ccc(Cl)cc2)c1=O` [Compound I-2480], for which the half-inhibitory concentration (IC50) was found to be 6 nM.
`Cc1cc(/N=c2\[nH]c(=O)n([C@H]3CC[C@@H](C(=O)O)CC3)c(=O)n2Cc2ccc(Cl)cc2)ccc1OC(C)C` [Compound I-0851]: the 50% inhibitory concentration (IC50) was found to be 24 nM.
